The subject of one test is HUVEC. Kind of test: Cell viability/metabolism (XTT) in HUVEC. Particulars: 48 h. The test is classed as cell-based. The procedure: FIG. 7. Regulation of expression of CD146 and angiomotin (Amot) is differently regulated in endothelial cells. […] CD146 (A) and angiomotin (B) were analyzed by qPCR. […] The cell metabolism was measured by XTT assay. […] The cell metabolism was measured by XTT assay. Results are represented as the mean of three independent experiments±SEM. * p<0.05, ** p<0.01, *** p<0.001.
(§1) Fifty microliters of sodium 3′-[1-phenylaminocarbonyl)-3,4-tetrazolium]-bis(4-methoxy-6-nitro) benzene sulfonic acid hydrate (XTT) reagent was added to each well. The assay is based on the cleavage of the yellow tetrazolium salt XTT to form an orange formazan dye by metabolically active cells. The absorbance of the formazan product, reflecting cell viability, was measured at 490 nm. Each assay was performed in quadruplicate.
On the technique in general: Tetrazolium dyes change colour on reduction, which living cells bring about.

The next test has as its system 786 cells. Description: Cell viability/metabolism (XTT) in 786 cells. The test is classed as cell-based. Particulars: sCD146 50 and 100 ng/ml, 48 h. The protocol:
FIG. 4. […] The mRNA levels of CD146 total (A), long (B) and short forms (C) and angiomotin (E) were evaluated by qPCR. D, sCD146 protein in cell supernatants was evaluated by ELISA. […] The cell metabolism was measured by XTT assay. Results are represented as the mean of three independent experiments±SEM.* p<0.05, ** p<0.01, *** p<0.001.
as §1

Test [1] is described as follows: Survival (PFS, OS) of metastatic ccRCC patients in the prospective cohort (SUVEGIL and TORAVA trials), split by sCD146 variation. The test is classed as in vivo, human. The source says:
Eligible patients for SUVEGIL and TORAVA trials were at least 18 years of age and had metastatic clear cell renal cell carcinoma (ccRCC) histologically confirmed, with the presence of measurable disease according to Response Evaluation Criteria in Solid Tumors (RECIST) v1.1. […] Patients were ineligible if they had symptomatic or uncontrolled brain metastases, an estimated lifetime less than 3 months, uncontrolled hypertension or clinically significant cardiovascular events (heart failure, prolongation of the QTinterval), history of other primary cancer. All patients gave written informed consent.
The prospective cohort includes patients from the SUVEGIL and TORAVA trials.
The SUVEGIL trial (clinicaltrial.gov, NCT00943839) was a multicenter prospective single-arm study. […] Courses repeat every 6 weeks in the absence of disease progression or unacceptable toxicity.
The TORAVA trial (clinicaltrial.gov, NCT00619268) was a randomized prospective study. Patient characteristics and results have been previously described (Negrier et al, 2011).
The % variation of plasmatic level of sCD146 was correlated with OS and PFS, defined respectively as the time from inclusion in the trial to death from all causes (for OS) and to progression, treatment cessation, or death (for PFS), censored at last follow-up for those still alive or who have not progressed.
(§2) PFS was defined as the time between blood sample collection and progression, or death from any cause, censoring those alive and progression free at last follow-up. OS was defined as the time from blood sample collection to the date of death from any cause, censoring those alive at last follow-up.
(§3) The % variation of sCD146 between diagnosis and after 1 cycle of suntinib cut-off point was determined at 120%. Kaplan Meier method was used to produce survival curves and analyses of censored data were performed using Cox models.

The nature of test [2]: PFS of patients in the retrospective validation cohort, split by sCD146 variation. The test is classed as in vivo, human. Particulars: retrospective/confirmation cohort. The protocol:
13 patients from the HEPG (France) (50 mg/day, once daily for four weeks) were analyzed retrospectively.
as §2, §3

The subject of the next test is sCD146. Description: ELISA of sCD146 protein in 786/786R cell supernatants. The test is classed as cell-based. The note with it: 786R cells; 10 μg/ml, 48 hr. (An ELISA detects its analyte on a solid surface through an enzyme-linked reagent.)
[3] abbreviates: patients with sCD146 plasmatic level increase ≥120% between diagnosis and first cycle of treatment.
Setting [4] is: patients with sCD146 variation <120% between diagnosis and first cycle of treatment.

For “sCD146: soluble form of CD146 generated by shedding of the membrane form; used as recombinant protein in cell assays”, the protection from sunitinib entry in the test with HUVEC (HUVEC treated with sunitinib, recombinant sCD146 50 or 100 ng/ml) was “did not protect HUVEC from sunitinib”. Also, the “proliferation of HUVEC” value with HUVEC (HUVEC, recombinant sCD146 50 or 100 ng/ml) is “stimulated the proliferation of HUVEC”. Further, the “effect on sunitinib-dependent decrease of cell metabolism” value with 786 cells (786 cells treated with 2.5 or 5 μM sunitinib) is “prevents sunitinib-dependent decreased cell metabolism”. The cell metabolism result in the test on 786 cells (786 cells) was “increased cell metabolism at both concentrations”.
On to `CCN(CC)CCNC(=O)c1c(C)[nH]c(/C=C2\C(=O)Nc3ccc(F)cc32)c1C` [sunitinib], for which the “decrease in cell proliferation” value in the test on HUVEC (HUVEC, 1 or 2 μM) was “about 50%”. The figures for the “median PFS” value in test [1] (setting [3]) and in test [1] (setting [4]) were 5.7 months and 20.5 months, respectively. In addition, the “median OS” value in test [1] (patients with sCD146 ≥120%) is 11 months. The PFS in test [2] (patients with modulation of sCD146 <120%) turned out to be 24.8 months; in test [2] (patients with sCD146 ≥120%), 2.3 months.
With bevacizumab, the “median OS” value in test [1] (patients with sCD146 <120%) was found to be 24.4 months; in test [1] (patients with sCD146 ≥120%) it was 24.1 months. For the same compound, the “median PFS” value in test [1] (setting [3]) worked out at 10.5 months; in test [1] (setting [4]), 10.7 months. Further, the sCD146 secretion result in the test on sCD146 is reported as “no increase in sCD146 secretion”.

The values above are taken from US20200232989A1 (UNIVERSITE D'AIX-MARSEILLE, priority 2017, published 2020).
